# Reference: PMC8197214, “8a, a New Acridine Antiproliferative and Pro-Apoptotic Agent Targeting HDAC1/DNMT1” (International Journal of Molecular Sciences, 2021)
# Molecular target: DNMT1 (Homo sapiens, UniProt P26358)
# Assay: biolayer interferometry (Octet K2), His-tagged DNMT1 on NTA biosensor
# Type: binding
# Sequence of DNMT1 (P26358 whole entry): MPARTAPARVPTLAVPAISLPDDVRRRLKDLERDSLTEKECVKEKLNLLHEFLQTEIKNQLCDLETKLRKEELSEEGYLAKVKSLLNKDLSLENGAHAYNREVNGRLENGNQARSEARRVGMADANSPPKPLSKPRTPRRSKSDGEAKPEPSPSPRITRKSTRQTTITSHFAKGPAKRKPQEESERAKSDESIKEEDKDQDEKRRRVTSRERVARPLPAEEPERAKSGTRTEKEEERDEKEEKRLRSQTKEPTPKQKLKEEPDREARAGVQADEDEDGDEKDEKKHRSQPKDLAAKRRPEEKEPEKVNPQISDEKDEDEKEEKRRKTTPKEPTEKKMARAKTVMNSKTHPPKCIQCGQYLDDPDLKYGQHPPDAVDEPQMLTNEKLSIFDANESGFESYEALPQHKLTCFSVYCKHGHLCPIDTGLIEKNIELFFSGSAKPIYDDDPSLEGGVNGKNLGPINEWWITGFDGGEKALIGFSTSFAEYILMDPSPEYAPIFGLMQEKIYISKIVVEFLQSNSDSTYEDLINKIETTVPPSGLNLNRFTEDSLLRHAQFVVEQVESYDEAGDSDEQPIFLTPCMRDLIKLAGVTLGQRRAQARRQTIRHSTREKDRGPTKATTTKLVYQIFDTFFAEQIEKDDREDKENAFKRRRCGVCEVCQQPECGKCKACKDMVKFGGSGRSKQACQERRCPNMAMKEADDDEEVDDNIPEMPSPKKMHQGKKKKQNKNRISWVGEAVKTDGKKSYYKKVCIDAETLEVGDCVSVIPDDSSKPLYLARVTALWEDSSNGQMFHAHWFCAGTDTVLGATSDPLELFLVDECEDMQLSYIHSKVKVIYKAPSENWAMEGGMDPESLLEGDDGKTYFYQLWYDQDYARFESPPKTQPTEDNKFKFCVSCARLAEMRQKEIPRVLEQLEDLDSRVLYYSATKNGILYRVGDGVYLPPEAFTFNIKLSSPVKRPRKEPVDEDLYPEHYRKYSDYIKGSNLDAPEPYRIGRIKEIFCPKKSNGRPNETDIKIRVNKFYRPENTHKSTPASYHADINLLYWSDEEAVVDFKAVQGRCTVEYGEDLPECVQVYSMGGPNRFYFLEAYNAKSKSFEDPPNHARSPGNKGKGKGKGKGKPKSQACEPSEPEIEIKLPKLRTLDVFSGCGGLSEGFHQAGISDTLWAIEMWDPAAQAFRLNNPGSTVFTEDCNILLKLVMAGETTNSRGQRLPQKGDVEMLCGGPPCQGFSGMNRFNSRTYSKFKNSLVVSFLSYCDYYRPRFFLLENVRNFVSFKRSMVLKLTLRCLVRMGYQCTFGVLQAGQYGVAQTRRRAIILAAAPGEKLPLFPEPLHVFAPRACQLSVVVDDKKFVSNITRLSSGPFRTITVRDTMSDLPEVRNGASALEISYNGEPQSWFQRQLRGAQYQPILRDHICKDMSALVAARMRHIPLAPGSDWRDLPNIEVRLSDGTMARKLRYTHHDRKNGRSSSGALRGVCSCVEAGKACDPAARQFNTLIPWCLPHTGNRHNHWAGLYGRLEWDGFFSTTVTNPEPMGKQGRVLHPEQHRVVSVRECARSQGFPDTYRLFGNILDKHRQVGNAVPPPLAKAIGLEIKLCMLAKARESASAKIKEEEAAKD
compound,measurement,value
"Cc1cccc2c(NCc3ccc(C(=O)Nc4ccccc4N)cc3)c3ccccc3nc12 [8a, N-(2-aminophenyl)-4-(((4-methylacridin-9-yl)amino)methyl) benzamide]",Kd,1.9 nM
